Results taken from patent publication US12502380B2, “MrgprX2 antagonists for the treatment of inflammatory disorders” (Dermira, Inc., priority 2019, dated 2025).

These compounds were tested against T1, Human MrgprX2 (Homo sapiens, UniProt Q96LB1) (assay: Human MrgprX2 antagonist FLIPR intracellular calcium mobilization assay). Conditions: antagonist activity, recombinant hMrgpMRGPRX2 expressing cells, read-out: Human MrgprX2 Antagonist pIC50 (converted).
T1 construct: expressed in transfected cells
T1 sequence (Q96LB1 1-330): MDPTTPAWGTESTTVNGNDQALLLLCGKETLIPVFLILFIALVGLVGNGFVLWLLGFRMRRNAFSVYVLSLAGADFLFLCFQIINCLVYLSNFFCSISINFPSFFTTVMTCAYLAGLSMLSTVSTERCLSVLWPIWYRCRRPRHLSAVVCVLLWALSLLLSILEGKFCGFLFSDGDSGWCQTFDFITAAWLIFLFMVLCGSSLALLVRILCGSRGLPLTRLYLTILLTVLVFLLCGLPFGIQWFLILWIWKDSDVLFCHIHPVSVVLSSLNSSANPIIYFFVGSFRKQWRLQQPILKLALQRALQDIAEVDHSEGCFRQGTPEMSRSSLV
Assay type: cell-based
Text: Potent and selective hMrgpMRGPRX2 compounds have been generated from compounds identified during a high throughput screening (HTS) campaign and followed up with cycles of structure activity based medicinal chemistry efforts. These compounds were characterized in recombinant hMrgpMRGPRX2 expressing cells for their antagonist activity and the potency was confirmed in the human mast cell line LAD-2, where the target is endogenously expressed. The assays used to determine potencies are functional read-out looking at intracellular calcium mobilization using the FLIPR™ technology. In these FLIPR assays, we test the identified compounds using recombinant cellular systems expressing mouse MrgprB2, mouse MrgprA1, gerbil MrgpMRGPRX2 orthologue, Chinese hamster MrgpMRGPRX2 orthologue and cynomolgus monkey MrgpMRGPRX2 orthologue, respectively for orthologue activity.

| Structure (SMILES) | IC50 [nM] |
| --- | --- |
| C[C@@]1(C(=O)Nc2ncc(Cc3cccc(F)c3)s2)CCOC1 (single isomer, unassigned) [Compound E048, N-[5-[(3-fluorophenyl)methyl]thiazol-2-yl]-3-methyl-tetrahydrofuran-3-carboxamide] | 126 |
| C[C@]1(C(=O)Nc2ncc(Cc3cccc(F)c3)s2)CCOC1 (single isomer, unassigned) [Compound E049, N-[5-[(3-fluorophenyl)methyl]thiazol-2-yl]-3-methyl-tetrahydrofuran-3-carboxamide] | 200 |
| C[C@]1(C(=O)Nc2ncc(Cc3cccc(Cl)c3)s2)CCOC1 (single isomer, unassigned) [Compound E051, N-[5-[(3-chlorophenyl)methyl]thiazol-2-yl]-3-methyl-tetrahydrofuran-3-carboxamide] | 100 |
| C[C@]1(C(=O)Nc2ncc(Oc3cccc(F)c3)s2)CCOC1 (single isomer, unassigned) [Compound E084, N-[5-(3-fluorophenoxy)thiazol-2-yl]-3-methyl-tetrahydrofuran-3-carboxamide] | 3.16 |
| CC(C)C(=O)Nc1ncc(Cc2cccc(C(F)(F)F)c2)s1 [Compound E002] | 7940 |
| CC(C)(C(=O)Nc1ncc(Cc2ccc(F)cc2)s1)N1CCOCC1 [Compound E006] | 126 |
| CC1(C(=O)Nc2ncc(Cc3cccc(F)c3)s2)CCOCC1 [Compound E007] | 100 |
| O=C(Nc1ncc(Cc2ccccc2F)s1)C1CCOC1 (centres unmarked) [Compound E008] | 3980 |
| CC(C(=O)Nc1ncc(Cc2ccccc2F)s1)N1CCOCC1 (centres unmarked) [Compound E009] | 316 |
| CC(C)(C#N)C(=O)Nc1ncc(Cc2ccccc2F)s1 [Compound E012] | 631 |
| O=C(CN1CCCCC1)Nc1ncc(Cc2ccccc2F)s1 [Compound E013] | 398 |
| CC1(C(=O)Nc2ncc(Cc3ccccc3F)s2)CCOC1 (centres unmarked) [Compound E014] | 631 |
| CC(C)(C)OC(=O)N1CCC(C)(C(=O)Nc2ncc(Cc3ccccc3F)s2)CC1 [Compound E018] | 316 |
| CC1(C(=O)Nc2ncc(Oc3ccccc3)s2)CCOCC1 [Compound E020] | 126 |
| Cc1cccc(Cc2cnc(NC(=O)C3(C)CCOCC3)s2)c1 [Compound E024] | 398 |
| O=C(Nc1ncc(Cc2cccc(F)c2)s1)C1(O)CC1 [Compound E026] | 2510 |
| O=C(Nc1ncc(Cc2cccc(F)c2)s1)C1(C(F)(F)F)CC1 [Compound E027] | 100 |
| CC1(C(=O)Nc2ncc(Cc3cccc(Cl)c3)s2)CCOC1 (centres unmarked) [Compound E033, N-[5-[(3-chlorophenyl)methyl]thiazol-2-yl]-3-methyl-tetrahydrofuran-3-carboxamide] | 79.4 |
| CC(C)(C#N)C(=O)Nc1ncc(Cc2cccc(Cl)c2)s1 [Compound E034] | 158 |
| CC1(C(=O)Nc2ncc(Cc3cccc(Cl)c3)s2)COC1 [Compound E036] | 316 |
| CC1(C(=O)Nc2ncc(Cc3cc(F)cc(F)c3)s2)COC1 [Compound E047] | 25.1 |
| CN1CCC[C@@H]1C(=O)Nc1ncc(Cc2cccc(F)c2)s1 [Compound E054, (2R)—N-[5-[(3-fluorophenyl)methyl]thiazol-2-yl]-1-methyl-pyrrolidine-2-carboxamide] | 39.8 |
| CC(=O)N1CCC[C@@H]1C(=O)Nc1ncc(Cc2cccc(F)c2)s1 [Compound E055, (2R)-1-acetyl-N-[5-[(3-fluorophenyl)methyl]thiazol-2-yl]pyrrolidine-2-carboxamide] | 3980 |
| NS(=O)(=O)N1CCC[C@@H]1C(=O)Nc1ncc(Cc2cccc(F)c2)s1 [Compound E057, (2R)—N-[5-[(3-fluorophenyl)methyl]thiazol-2-yl]-1-sulfamoyl-pyrrolidine-2-carboxamide] | 31.6 |
| CN1CCC[C@H]1C(=O)Nc1ncc(Cc2cccc(F)c2)s1 [Compound E058, (2S)—N-[5-[(3-fluorophenyl)methyl]thiazol-2-yl]-1-methyl-pyrrolidine-2-carboxamide] | 126 |

Next, values leading:

| IC50 [nM] | Structure (SMILES) |
| --- | --- |
| 63.1 | C[C@@]1(C(=O)Nc2ncc(Cc3cccc(Cl)c3)s2)CCOC1 (single isomer, unassigned) [Compound E050, N-[5-[(3-chlorophenyl)methyl]thiazol-2-yl]-3-methyl-tetrahydrofuran-3-carboxamide] |
| 3.98 | C[C@@]1(C(=O)Nc2ncc(Cc3cc(F)cc(F)c3)s2)CCOC1 (single isomer, unassigned) [Compound E052, N-[5-[(3,5-difluorophenyl)methyl]thiazol-2-yl]-3-methyl-tetrahydrofuran-3-carboxamide] |
| 7.94 | C[C@]1(C(=O)Nc2ncc(Cc3cc(F)cc(F)c3)s2)CCOC1 (single isomer, unassigned) [Compound E053, N-[5-[(3,5-difluorophenyl)methyl]thiazol-2-yl]-3-methyl-tetrahydrofuran-3-carboxamide] |
| 3.98 | C[C@@]1(C(=O)Nc2ncc(Oc3cccc(F)c3)s2)CCOC1 (single isomer, unassigned) [Compound E083, N-[5-(3-fluorophenoxy)thiazol-2-yl]-3-methyl-tetrahydrofuran-3-carboxamide] |
| 398 | CC1(C(=O)Nc2ncc(Cc3ccc(F)cc3)s2)CCOCC1 [Compound E001, N-[5-[(4-fluorophenyl)methyl]thiazol-2-yl]-4-methyl-tetrahydropyran-4-carboxamide] |
| 39.8 | CC(C)(C(=O)Nc1ncc(Cc2ccccc2F)s1)N1CCOCC1 [Compound E003] |
| 398 | CC1(C(=O)Nc2ncc(Cc3ccccc3F)s2)CCOCC1 [Compound E004] |
| 3980 | CC(C)(O)C(=O)Nc1ncc(Cc2ccccc2F)s1 [Compound E005] |
| 1260 | CC(C)(CO)C(=O)Nc1ncc(Cc2ccccc2F)s1 [Compound E010] |
| 501 | CN(C)C(C)(C)C(=O)Nc1ncc(Cc2ccccc2F)s1 [Compound E011] |
| 126 | CC1(C(=O)Nc2ncc(Cc3cccc(F)c3)s2)CCOC1 (centres unmarked) [Compound E015, N-[5-[(3-fluorophenyl)methyl]thiazol-2-yl]-3-methyl-tetrahydrofuran-3-carboxamide] |
| 3980 | CC1(C(=O)Nc2ncc(Cc3ccccc3F)s2)COC1 [Compound E016] |
| 1260 | CC(C(=O)Nc1ncc(Cc2ccccc2F)s1)N1CCCC1 (centres unmarked) [Compound E017] |
| 251 | COC(C)(C)C(=O)Nc1ncc(Cc2ccccc2F)s1 [Compound E019] |
| 251 | CC(C)(F)C(=O)Nc1ncc(Cc2ccccc2F)s1 [Compound E021] |
| 5010 | CC(F)(F)C(=O)Nc1ncc(Cc2ccccc2F)s1 [Compound E022] |
| 126 | CC1(C(=O)Nc2ncc(Cc3cccc(Cl)c3)s2)CCOCC1 [Compound E023] |

| IC50 [nM] | Structure (SMILES) |
| --- | --- |
| 200 | CC(O)(C(=O)Nc1ncc(Cc2cccc(F)c2)s1)C(F)(F)F (centres unmarked) [Compound E025] |
| 6310 | N#CC1(C(=O)Nc2ncc(Cc3ccccc3F)s2)CCOCC1 [Compound E028] |
| 631 | O=C(Nc1ncc(Cc2cccc(F)c2)s1)C1(CO)CC1 [Compound E029] |
| 2000 | C[C@@H](CO)C(=O)Nc1ncc(Cc2cccc(F)c2)s1 [Compound E031] |
| 7940 | CC1(C(=O)Nc2ncc(Cc3cccc(F)c3)s2)CCC(=O)N1 (centres unmarked) [Compound E032] |
| 3160 | CC(C)(C)OC(=O)N1CCC[C@@H]1C(=O)Nc1ncc(Cc2cccc(F)c2)s1 [Compound E035, tert-butyl (2R)-2-[[5-[(3-fluorophenyl)methyl]thiazol-2-yl]carbamoyl]pyrrolidine-1-carboxylate] |
| 251 | CC(C)(C)OC(=O)N1CCC[C@]1(C)C(=O)Nc1ncc(Cc2cccc(F)c2)s1 [Compound E037, tert-butyl (2R)-2-[[5-[(3-fluorophenyl)methyl]thiazol-2-yl]carbamoyl]-2-methyl-pyrrolidine-1-carboxylate] |
| 1580 | O=C(Nc1ncc(Cc2cccc(F)c2)s1)C1CCCC1O (centres unmarked) [Compound E038] |
| 6310 | CC(C)C(=O)Nc1nc(-c2ccccc2)cs1 [Compound E039] |
| 631 | Cc1nc(NC(=O)C(C)C)sc1Cc1ccccc1 [Compound E040] |
| 2 | CC(C)C(=O)Nc1ncc(Cc2cc(F)cc(F)c2)s1 [Compound E041] |
| 39.8 | CC(C)C(=O)Nc1ncc(Cc2ccc(F)cc2F)s1 [Compound E042] |
| 7.94 | CC(C)C(=O)Nc1ncc(Cc2ccc(F)c(F)c2)s1 [Compound E043] |
| 15.8 | CC1(C(=O)Nc2ncc(Cc3cc(F)cc(F)c3)s2)CCOCC1 [Compound E044] |
| 158 | CC1(C(=O)Nc2ncc(Cc3ccc(F)c(F)c3)s2)CCOCC1 [Compound E045] |
| 5.01 | CC1(C(=O)Nc2ncc(Cc3cc(F)cc(F)c3)s2)CCOC1 (centres unmarked) [Compound E046, N-[5-[(3,5-difluorophenyl)methyl]thiazol-2-yl]-3-methyl-tetrahydrofuran-3-carboxamide] |
| 1580 | CS(=O)(=O)N1CCC[C@@H]1C(=O)Nc1ncc(Cc2cccc(F)c2)s1 [Compound E056, (2R)—N-[5-[(3-fluorophenyl)methyl]thiazol-2-yl]-1-methylsulfonyl-pyrrolidine-2-carboxamide] |
